Positions of bridges follow the written chain, without caps; N, C: chain ends. Non-standard residues stand in square brackets, D forms with d. Residues, ends and D or L forms follow the SMILES beside them. ξ: configuration not given here. *: point of attachment. X1 = CCN([C@@H](C)C(=O)C[C@@H](CCCCNC(=O)CCC(F)(F)C(F)(F)C(F)(F)C(F)(F)C(F)(F)C(F)(F)C(F)(F)C(F)(F)F)C(=O)NCC(N)=O)*; Ile(3ξ) = CCC(C)[C@H](N)C(=O)O

Data set [1] in a line: Solubility study in water by visual observation.
Description: (§1) The resulting solution was vortexed 1 min following by 1 min in bath sonication. Solubility was then assessed by visual observation of the resulting dispersion (Clear/Cloudy and presence of particulates).
Data set [2] can be described thus: Human plasma stability (HPLC-MS/MS). To be noted: 37° C.; for Human plasma stability (t1/2): 1 μM; for half-life at 1 μM: human, plasma, Human plasma stability (t1/2).
Description: (§2) This procedure is designed to determine the stability of a test compound in blood or plasma from human or animal species in a 96-well plate format. The test compound is quantified at 5 time points by HPLC-MS/MS analysis.
(§3) Test concentration: 1 μM with a final DMSO concentration of 0.5%.
(§4) Experimental protocol : Blood or plasma are pre-warmed at 37° C. water bath for 5 min, followed by addition of the test compound. The incubation is performed in a 37° C. water bath for 2 h. An aliquot of the incubation mixture is transferred to acetonitrile at 0, 0.5, 1, 1.5 and 2 h, respectively. Samples are then mixed and centrifuged. Supernatants are used for HPLC-MS/MS analysis. Reference compounds Propoxycaine and propantheline are tested simultaneously with the test compound in each assay. Analytical methods Samples are analyzed by HPLC-MS/MS using selected reaction monitoring. The HPLC system consists of a binary LC pump with autosampler, a C-18 column, and a gradient. Conditions may be adjusted as necessary. Data analysis Peak areas corresponding to the test compound are recorded. The compound remaining (%) is calculated by comparing the peak area at each time point to time zero. The half-life is calculated from the slope of the initial linear range of the logarithmic curve of compound remaining (%) vs. time, assuming first order kinetics
(§5) Test concentration: 1 μM with a final DMSO concentration of 0.5%. Experimental protocol: Blood or plasma are pre-warmed at 37° C. water bath for 5 min, followed by addition of the test compound. The incubation is performed in a 37° C. water bath for 2 h. An aliquot of the incubation mixture is transferred to acetonitrile at 0, 0.5, 1, 1.5 and 2 h, respectively. Samples are then mixed and centrifuged. Supernatants are used for HPLC-MS/MS analysis. Reference compounds Propoxycaine and propantheline are tested simultaneously with the test compound in each assay. Analytical methods Samples are analyzed by HPLC-MS/MS using selected reaction monitoring. The HPLC system consists of a binary LC pump with autosampler, a C-18 column, and a gradient. Conditions may be adjusted as necessary. Data analysis Peak areas corresponding to the test compound are recorded. The compound remaining (%) is calculated by comparing the peak area at each time point to time zero. The half-life is calculated from the slope of the initial linear range of the logarithmic curve of compound remaining (%) vs. time, assuming first order kinetics
(§6) Test concentration: 1 μM with a final DMSO concentration of 0.5%. Experimental protocol: Blood or plasma are pre-warmed at 37° C. water bath for 5 min, followed by addition of the test compound. The incubation is performed in a 37° C. water bath for 2 h. An aliquot of the incubation mixture is transferred to acetonitrile at 0, 0.5, 1, 1.5 and 2 h, respectively. Samples are then mixed and centrifuged. Supernatants are used for HPLC-MS/MS analysis. Reference compounds Propoxycaine and propantheline are tested simultaneously with the test compound in each assay. Analytical methods Samples are analyzed by HPLC-MS/MS using selected reaction monitoring. The HPLC system consists of a binary LC pump with autosampler, a C-18 column, and a gradient. Conditions may be adjusted as necessary. Data analysis Peak areas corresponding to the test compound are recorded. The compound remaining (%) is calculated by comparing the peak area at each time point to time zero. The half-life is calculated from the slope of the initial linear range of the logarithmic curve of compound remaining (%) vs. time, assuming first order kinetics.
The next data set is described as follows: in vitro. The conditions noted are these: human, plasma, Human plasma stability (t1/2).
In data set [3] the target is T1, human vasopressin Oxytocin receptor (Homo sapiens, UniProt P30559).
T1 construct: expressed in transfected cells; host or cells: Chem-1 cells (membrane homogenates)
T1 sequence (P30559 1-389): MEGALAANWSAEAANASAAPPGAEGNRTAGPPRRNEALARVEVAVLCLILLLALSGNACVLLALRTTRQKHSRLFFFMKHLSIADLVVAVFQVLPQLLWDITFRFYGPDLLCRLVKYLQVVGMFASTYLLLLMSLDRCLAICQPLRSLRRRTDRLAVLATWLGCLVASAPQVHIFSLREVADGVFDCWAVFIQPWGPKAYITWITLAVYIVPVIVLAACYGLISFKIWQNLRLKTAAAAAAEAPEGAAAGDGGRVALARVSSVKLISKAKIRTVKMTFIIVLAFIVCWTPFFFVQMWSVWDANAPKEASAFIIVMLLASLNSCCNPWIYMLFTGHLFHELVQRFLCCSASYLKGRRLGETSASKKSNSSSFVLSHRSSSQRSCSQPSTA
The data set is described as follows: Radioligand binding assay, human oxytocin receptor in transfected Chem-1 cells. The conditions noted are these: read-out: Affinity % of inhibition à 10 nM. On the procedure:
Experimental protocol: […] Following incubation, the samples are filtered rapidly under vacuum through glass fiber filters (GF/B, Packard) presoaked with 0.3% PEI and rinsed several times with ice-cold 50 mM Tris-HCl and 0.1% BSA using a 96-sample cell harvester (Unifilter, Packard). The filters are dried then counted for radioactivity in a scintillation counter (Topcount, Packard) using a scintillation cocktail (Microscint 0, Packard). The results are expressed as a percent inhibition of the control radioligand specific binding.

Description for in vitro: as §2, §3, §4, §5, §6
Description for physchem: as §1

By solubility is commonly meant the concentration that dissolves in the medium under given conditions. Lower therefore signals a poorly soluble substance. The compound `CC[C@H](C)[C@H](NC(=O)[C@H](Cc1ccc(O)cc1)NC(=O)[C@@H](NC(=O)[C@H](CCCNC(=N)N)NC(=O)[C@@H](N)CC(=O)O)C(C)C)C(=O)N[C@@H](Cc1cnc[nH]1)C(=O)N1CCC[C@H]1C(=O)N[C@@H](Cc1ccccc1)C(=O)O` [Angiotensin II, reference compound] registered a solubility at 2 min in data set [1] above 100 µM.
One may read the half-life as the time needed for the level to fall by half in the phase considered. Read a low half-life as rapid decline. In data set [1], `CC[C@H](C)[C@H](NC(=O)[C@H](Cc1ccc(O)cc1)NC(=O)[C@@H](NC(=O)[C@H](CCCNC(=N)N)NC(=O)[C@H](CC(=O)O)NC(=O)CCC(F)(F)C(F)(F)C(F)(F)C(F)(F)C(F)(F)C(F)(F)C(F)(F)C(F)(F)F)C(C)C)C(=O)N[C@@H](Cc1cnc[nH]1)C(=O)N1CCC[C@H]1C(=O)N[C@@H](Cc1ccccc1)C(=O)O` [LE120] showed a solubility at 2 min above 100 µM. In addition, in data set [2] (angiotensin II analogs table), the “Human plasma stability (t1/2)” value is above 24 h and the half-life at 1 μM is above 24 h.
Take `CSCC[C@H](NC(=O)[C@@H]1CCCN1C(=O)CNC(=O)[C@H](CCCCN)NC(=O)[C@H](Cc1c[nH]cn1)NC(=O)[C@H](CO)NC(=O)[C@H](CC(C)C)NC(=O)[C@H](CCCNC(=N)N)NC(=O)[C@@H]1CCCN1C(=O)[C@H](CCCNC(=N)N)NC(=O)[C@H](CCC(N)=O)NC(=O)CCC(F)(F)C(F)(F)C(F)(F)C(F)(F)C(F)(F)C(F)(F)C(F)(F)C(F)(F)F)C(=O)N1CCC[C@H]1C(=O)N[C@@H](Cc1ccccc1)C(=O)O` [LE-122]: in data set [2] (apelin analogs table), the “Human plasma stability (t1/2)” value worked out at 20.68 h and the half-life at 1 μM was above 20.7 h. Moreover, the solubility at 2 min in the data set “physchem” is above 100 µM.
As to `CSCC[C@H](NC(=O)[C@@H]1CCCN1C(=O)CNC(=O)[C@H](CCCCN)NC(=O)[C@H](Cc1c[nH]cn1)NC(=O)[C@H](CO)NC(=O)[C@H](CC(C)C)NC(=O)[C@H](CCCNC(=N)N)NC(=O)[C@@H]1CCCN1C(=O)[C@H](CCCNC(=N)N)NC(=O)[C@H](CCC(N)=O)NC(=O)[C@@H](N)CCCCNC(=O)CCC(F)(F)C(F)(F)C(F)(F)C(F)(F)C(F)(F)C(F)(F)C(F)(F)C(F)(F)F)C(=O)N1CCC[C@H]1C(=O)N[C@@H](Cc1ccccc1)C(=O)O` [LE-124], in data set [2] (apelin analogs table), the half-life at 1 μM is 5.95 h.
Usually inhibition stands for the change of the read-out against control, counted positive when it falls. For the compound `CC[C@H](C)[C@@H]1NC(=O)[C@H](Cc2ccc(O)cc2)NC(=O)[C@@H](N)CSSC[C@@H](C(=O)N2CCC[C@H]2C(=O)N[C@@H](CC(C)C)C(=O)NCC(N)=O)NC(=O)[C@H](CC(N)=O)NC(=O)[C@H](CCC(N)=O)NC1=O` [Oxytocin, reference compound], in “in vitro”, the half-life at 1 μM worked out at 2.45 h. Besides, in data set [3], the inhibition at 0.01 µM was 102%. Besides, the solubility at 2 min in “physchem” is above 100 µM.
With `CCC(C)[C@@H]1NC(=O)[C@H](Cc2ccc(O)cc2)NC(=O)[C@@H](N)CSSC[C@@H](C(=O)N(CC)[C@@H](C)C(=O)C[C@@H](CCCCNC(=O)CCC(F)(F)C(F)(F)C(F)(F)C(F)(F)C(F)(F)C(F)(F)C(F)(F)C(F)(F)F)C(=O)NCC(N)=O)NC(=O)[C@H](CC(N)=O)NC(=O)[C@H](CCC(N)=O)NC1=O` (some centres unmarked) [SR-11-74] (H-CY[Ile(3ξ)]QNC-X1; disulfide 1-6), the inhibition at 0.01 µM in data set [3] was found to be 91.3%. The half-life at 1 μM in data set [2] (oxytocin analogs table) is 3.98 h. The same compound displayed a solubility at 2 min in the data set “physchem” above 100 µM.

The values are drawn from patent publication US20230173076A1, “METABOLICALLY STABLE PEPTIDE ANALOGS” (UNIVERSITÉ DE STRASBOURG, priority 2016, published 2023).
